This is an account of results in patent publication US9266867B2, “Piperidinyl monocarboxylic acids as S1P1 receptor agonists” (BIOPROJET, priority 2011, dated 2016).

Counter-ions that a name gives are not always drawn.

One experiment deals with EDG-1 (Homo sapiens, UniProt P21453). The experiment can be described thus: 35S-GTPγS binding assay, EDG1 (S1P1). Format: biochemical. Also on record: expressed in transfected cells.
Chain of EDG-1 (P21453 whole entry): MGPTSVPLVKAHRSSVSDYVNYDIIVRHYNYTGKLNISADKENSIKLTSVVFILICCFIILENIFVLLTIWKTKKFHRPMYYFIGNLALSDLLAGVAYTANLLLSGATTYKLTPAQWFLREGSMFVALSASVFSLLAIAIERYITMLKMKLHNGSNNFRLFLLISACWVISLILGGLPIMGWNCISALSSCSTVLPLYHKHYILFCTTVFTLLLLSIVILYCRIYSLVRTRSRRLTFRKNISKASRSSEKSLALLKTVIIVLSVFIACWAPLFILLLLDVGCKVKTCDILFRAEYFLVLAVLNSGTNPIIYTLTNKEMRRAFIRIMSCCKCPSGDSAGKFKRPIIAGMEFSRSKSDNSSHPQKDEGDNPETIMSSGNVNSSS
Details: not given
As to the method: a) 35S-GTPγS Binding Assay GTP-γ-^35S binding was performed using […]15 μg protein of cell membranes suspended in 50 mM tris-HCl pH 7.5 containing 10 mM MgCl2, 100 mM NaCl and 10 μM GDP. The radioligand was 0.025 nM [^35S] GTP-γ-S and non specific binding determined in the presence of 10 μM non-radioactive GTP-γ-S. […] The maximal stimulation elicited by S1P was taken as a reference to define full or partial agonism and calculate the intrinsic activity (i.a.) of compounds.
In general terms: GTPγS is a poorly hydrolysed GTP analogue; its binding reports G protein activation.
A word on the EC50: it is the concentration giving half of the maximal effect. Take `CC(C)Cc1ccc(-c2nc(-c3ccc(CN4CCC(C(=O)O)(c5ccccc5)CC4)cc3)no2)cc1Cl` [Example 23, 1-{4-[5-(3-Chloro-4-isobutylphenyl)-[1,2,4]-oxadiazol-3-yl]-benzyl}-4-phenylpiperidine-4-carboxylic acid tert-butyl amine salt]: the EC50 was less than 10 nM.

The same experiment, now with this note: Table 1b; read-out: EDG1 EC50.
On to `COCC1(C(=O)O)CCN(Cc2ccc(-c3noc(-c4ccc(CC(C)C)c(Cl)c4)n3)cc2)CC1` [Example 16, 1-{4-[5-(3-Chloro-4-isobutylphenyl)-[1,2,4]-oxadiazol-3-yl]-benzyl}-4-methoxymethylpiperidine-4-carboxylic acid tert-butyl amine salt], for which the half-maximal effective concentration (EC50) is less than 1 nM. The same measure, in the same setting: under `C=CCC1(C(=O)O)CCN(Cc2ccc(-c3noc(-c4ccc(-c5ccccc5)c(Cl)c4)n3)cc2)CC1` [Example 17, 4-Allyl-1-{4-[5-(2-chlorobiphenyl-4-yl)-[1,2,4]-oxadiazol-3-yl]-benzyl}piperidine-4-carboxylic acid tert-butyl amine salt] stands less than 1 nM. Same read-out and setting: under `CCCC1(C(=O)O)CCN(Cc2ccc(-c3noc(-c4ccc(-c5ccccc5)c(Cl)c4)n3)cc2)CC1` [Example 18, 1-{4-[5-(2-Chlorobiphenyl-4-yl)-[1,2,4]-oxadiazol-3-yl]-benzyl}-4-propylpiperidine-4-carboxylic acid tert-butyl amine salt] stands less than 1 nM; under `COCCOCC1(C(=O)O)CCN(Cc2ccc(-c3noc(-c4ccc(-c5ccccc5)c(Cl)c4)n3)cc2)CC1` [Example 19, 1-{4-[5-(2-Chlorobiphenyl-4-yl)-[1,2,4]-oxadiazol-3-yl]-benzyl}-4-(2-methoxyethoxymethyl)piperidine-4-carboxylic acid tert-butyl amine salt], less than 1 nM. Consider `O=C(O)C1(COCc2ccccc2)CCN(Cc2ccc(-c3noc(-c4ccc(-c5ccccc5)c(Cl)c4)n3)cc2)CC1` [Example 20, 4-Benzyloxymethyl-1-{4-[5-(2-chlorobiphenyl-4-yl)-[1,2,4]-oxadiazol-3-yl]-benzyl}piperidine-4-carboxylic acid tert-butyl amine salt], for which the half-maximal effective concentration (EC50) was less than 1 nM. On the same count and under the same terms, the figure for `CC(C)Cc1ccc(-c2nc(-c3ccc(CN4CCC(COCc5ccccc5)(C(=O)O)CC4)cc3)no2)cc1Cl` [Example 21, 4-Benzyloxymethyl-1-[4-{5-(3-chloro-4-isobutylphenyl)-[1,2,4]-oxadiazol-3-yl]-benzyl}piperidine-4-carboxylic acid tert-butyl amine salt] is less than 1 nM; for `O=C(O)C1(CO)CCN(Cc2ccc(-c3noc(-c4ccc(-c5ccccc5)c(Cl)c4)n3)cc2)CC1` [Example 22, 1-{4-[5-(2-Chlorobiphenyl-4-yl)-[1,2,4]-oxadiazol-3-yl]-benzyl}-4-hydroxymethylpiperidine-4-carboxylic acid tert-butyl amine salt] it is less than 1 nM. For the compound `CC(C)Cc1ccc(-c2nc(-c3ccc(CN4CCC(Cc5ccccc5)(C(=O)O)CC4)cc3)no2)cc1Cl` [Example 24, 4-Benzyl-1-[4-{5-(3-chloro-4-isobutylphenyl)-[1,2,4]-oxadiazol-3-yl]benzyl}-piperidine-4-carboxylic acid tert-butyl amine salt], the 50% effective concentration (EC50) is less than 10 nM. The same measure, in the same setting: under `CC(C)Cc1ccc(-c2nc(-c3ccc(CN4CCC(Cc5ccc(F)cc5)(C(=O)O)CC4)cc3)no2)cc1Cl` [Example 25, 1-{4-[5-(3-Chloro-4-isobutyl-phenyl)-[1,2,4]-oxadiazol-3-yl]-benzyl}-4-(4-fluoro-benzyl)-piperidine-4-carboxylic acid tert-butyl amine salt] stands less than 1 nM. On the same count and under the same terms, under `CC(C)Cc1ccc(-c2nc(-c3ccc(CN4CCC(Cc5ccccc5F)(C(=O)O)CC4)cc3)no2)cc1Cl` [Example 26, 1-{4-[5-(3-Chloro-4-isobutyl-phenyl)-[1,2,4]-oxadiazol-3-yl]-benzyl}-4-(2-fluoro-benzyl)-piperidine-4-carboxylic acid tert-butyl amine salt] stands less than 1 nM; under `COc1ccc(CC2(C(=O)O)CCN(Cc3ccc(-c4noc(-c5ccc(CC(C)C)c(Cl)c5)n4)cc3)CC2)cc1` [Example 27, 1-{4-[5-(3-Chloro-4-isobutyl-phenyl)-[1,2,4]-oxadiazol-3-yl]-benzyl}-4-(4-methoxy-benzyl)-piperidine-4-carboxylic acid tert-butyl amine salt], less than 1 nM.

As for `COc1ccccc1CC1(C(=O)O)CCN(Cc2ccc(-c3noc(-c4ccc(CC(C)C)c(Cl)c4)n3)cc2)CC1` [Example 28, 1-{4-[5-(3-Chloro-4-isobutyl-phenyl)-[1,2,4]-oxadiazol-3-yl]-benzyl}-4-(2-methoxy-benzyl)-piperidine-4-carboxylic acid tert-butyl amine salt], the concentration giving a half-maximal response (EC50) is less than 1 nM. On the same count and under the same terms, under `COCC1(C(=O)O)CCN(Cc2ccc(-c3noc(-c4ccc(-c5ccccc5)c(Cl)c4)n3)cc2)CC1` [Example 29, 1-{4-[5-(2-chlorobiphenyl-4-yl)-[1,2,4]-oxadiazol-3-yl]benzyl}-4-methoxymethylpiperidine-4-carboxylic acid tert-butyl amine salt] stands less than 1 nM. Same read-out and setting: under `CCC1(C(=O)O)CCN(Cc2ccc(-c3noc(-c4ccc(-c5ccccc5)c(Cl)c4)n3)cc2)CC1` [Example 30, 1-{4-[5-(2-Chlorobiphenyl-4-yl)-[1,2,4]-oxadiazol-3-yl]-benzyl}-4-ethylpiperidine-4-carboxylic acid tert-butyl amine salt] stands less than 1 nM. On the same count and under the same terms, under `CC(C)Cc1ccc(-c2nc(-c3ccc(CN4CCC(C)(C(=O)O)CC4)cc3)no2)cc1` [Example 31, 1-{4-[5-(4-Isobutyl-phenyl)-[1,2,4]-oxadiazol-3-yl]-benzyl}-4-methyl-piperidine-4-carboxylic acid tert-butyl amine salt] stands less than 10 nM.

Regarding `COCCCCC1(C(=O)O)CCN(Cc2ccc(-c3noc(-c4ccc(CC(C)C)c(Cl)c4)n3)cc2)CC1` [Example 32, 1-{4-[5-(3-Chloro-4-isobutylphenyl-[1,2,4]-oxadiazol-3-yl]benzyl}-4-(4-methoxybutyl)piperidine-4-carboxylic acid tert-butylamine salt], the EC50 is less than 1 nM.

Take `COCCOCC1(C(=O)O)CCN(Cc2ccc(-c3noc(-c4ccc(CC(C)C)c(Cl)c4)n3)cc2)CC1` [Example 33, 1-{4-[5-(3-chloro-4-isobutylphenyl)-[1,2,4]-oxadiazol-3-yl]benzyl}-4-(2-methoxyethoxymethyl)piperidine-4-carboxylic acid potassium salt]: the EC50 is less than 1 nM.

Turning to `CC(C)Cc1ccc(-c2nc(-c3ccc(CN4CCC(CCOc5ccccc5)(C(=O)O)CC4)cc3)no2)cc1Cl` [Example 34, 1-{4-[5-(3-Chloro-4-isobutyl-phenyl)-[1,2,4]-oxadiazol-3-yl]-benzyl}-4-(2-phenoxy-ethyl)-piperidine-4-carboxylic acid tert-butyl amine salt], the EC50 was less than 1 nM. Same read-out and setting: the figure for `CC(C)Cc1ccc(-c2nc(-c3ccc(CN4CCC(Cc5c(F)cccc5F)(C(=O)O)CC4)cc3)no2)cc1Cl` [Example 35, 1-{4-[5-(3-Chloro-4-isobutyl-phenyl)-[1,2,4]-oxadiazol-3-yl]-benzyl}-4-(2,6-difluoro-benzyl)-piperidine-4-carboxylic acid tert-butyl amine salt] is less than 1 nM; for `CC(C)Cc1ccc(-c2nc(-c3ccc(CN4CCC(CC(C)C)(C(=O)O)CC4)cc3)no2)cc1Cl` [Example 36, 1-{4-[5-(3-Chloro-4-isobutyl-phenyl)-[1,2,4]-oxadiazol-3-yl]-benzyl}-4-isobutyl-piperidine-4-carboxylic acid tert-butyl amine salt] it is less than 10 nM; for `CC(C)Cc1ccc(-c2nc(-c3ccc(CN4CCC(C(=O)O)(C(C)C)CC4)cc3)no2)cc1Cl` [Example 37, 1-{4-[5-(3-Chloro-4-isobutyl-phenyl)-[1,2,4]-oxadiazol-3-yl]-benzyl}-4-isopropyl-piperidine-4-carboxylic acid tert-butyl amine salt] it is less than 1 nM.

On to `CC(C)Cc1ccc(-c2nc(-c3ccc(CN4CCC(Cc5cccc(C(F)(F)F)c5)(C(=O)O)CC4)cc3)no2)cc1Cl` [Example 38, 1-{4-[5-(3-Chloro-4-isobutyl-phenyl)-[1,2,4]-oxadiazol-3-yl]-benzyl}-4-(3-trifluoromethyl-benzyl)-piperidine-4-carboxylic acid tert-butyl amine salt], for which the EC50 is less than 10 nM. On the same count and under the same terms, the figure for `CC(C)Cc1ccc(-c2nc(-c3ccc(CN4CCC(Cc5ccco5)(C(=O)O)CC4)cc3)no2)cc1Cl` [Example 39, 1-{4-[5-(3-Chloro-4-isobutyl-phenyl)-[1,2,4]-oxadiazol-3-yl]-benzyl}-4-furan-2-ylmethyl-piperidine-4-carboxylic acid tert-butyl amine salt] is less than 10 nM; for `CC(C)Cc1ccc(-c2nc(-c3ccc(CN4CCC(Cc5ccccn5)(C(=O)O)CC4)cc3)no2)cc1Cl` [Example 40, 1-{4-[5-(3-Chloro-4-isobutyl-phenyl)-[1,2,4]-oxadiazol-3-yl]-benzyl}-4-pyridin-2-ylmethyl-piperidine-4-carboxylic acid tert-butyl amine salt] it is less than 1 nM; for `COc1ccccc1OCCC1(C(=O)O)CCN(Cc2ccc(-c3noc(-c4ccc(CC(C)C)c(Cl)c4)n3)cc2)CC1` [Example 41, 1-{4-[5-(3-Chloro-4-isobutyl-phenyl)-[1,2,4]-oxadiazol-3-yl]-benzyl}-4-[2-(2-methoxy-phenoxy)-ethyl]-piperidine-4-carboxylic acid tert-butyl amine salt] it is less than 1 nM.

Turning to `CC(C)Cc1ccc(-c2nc(-c3ccc(CN4CCC(Cc5cccnc5)(C(=O)O)CC4)cc3)no2)cc1Cl` [Example 42, 1-{4-[5-(3-Chloro-4-isobutyl-phenyl)-[1,2,4]-oxadiazol-3-yl]-benzyl}-4-pyridin-3-ylmethyl-piperidine-4-carboxylic acid tert-butyl amine salt], the EC50 is less than 1 nM.
